In ChEMBL document CHEMBL5241134, “Discovery of orally bioavailable inhibitors of MALT1 with in vivo activity for psoriasis” (Bioorg Med Chem Lett, 2023):

Assays:
[1] = target: T1, Mucosa-associated lymphoid tissue lymphoma translocation protein 1 (Homo sapiens, UniProt Q9UDY8); test: Inhibition of MALT1 (unknown origin)
T1 sequence (Q9UDY8 whole entry): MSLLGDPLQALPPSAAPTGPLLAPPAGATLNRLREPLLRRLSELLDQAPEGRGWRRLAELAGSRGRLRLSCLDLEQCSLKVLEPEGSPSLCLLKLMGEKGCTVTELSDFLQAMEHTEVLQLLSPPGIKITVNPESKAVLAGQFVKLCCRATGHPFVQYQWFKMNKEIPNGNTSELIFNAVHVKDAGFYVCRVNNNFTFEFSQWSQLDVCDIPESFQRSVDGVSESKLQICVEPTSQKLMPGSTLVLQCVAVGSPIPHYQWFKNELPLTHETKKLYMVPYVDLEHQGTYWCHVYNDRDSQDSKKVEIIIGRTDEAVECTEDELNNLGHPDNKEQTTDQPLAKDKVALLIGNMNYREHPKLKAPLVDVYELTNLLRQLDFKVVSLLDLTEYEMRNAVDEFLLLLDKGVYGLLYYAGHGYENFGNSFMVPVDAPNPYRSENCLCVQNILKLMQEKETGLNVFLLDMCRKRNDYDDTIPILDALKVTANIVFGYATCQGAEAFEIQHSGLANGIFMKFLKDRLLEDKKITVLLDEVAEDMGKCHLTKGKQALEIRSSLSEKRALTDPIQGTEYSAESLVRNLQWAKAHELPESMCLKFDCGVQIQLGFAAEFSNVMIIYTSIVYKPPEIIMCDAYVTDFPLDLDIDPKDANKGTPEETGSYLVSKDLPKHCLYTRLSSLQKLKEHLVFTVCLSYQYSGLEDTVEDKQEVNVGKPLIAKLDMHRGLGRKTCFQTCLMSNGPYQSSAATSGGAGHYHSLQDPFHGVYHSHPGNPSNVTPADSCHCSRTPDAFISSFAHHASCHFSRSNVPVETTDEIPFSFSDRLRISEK

[2] = Inhibition of IL-2 production in PMA/ionomycin stimulated human Jurkat T cells; assay type: functional, cell-based
[3] = Half-life in BALB/cAnNCrlCr mouse at 1 mg/kg, iv administered as single dose; assay type: ADME, organism-based; conditions: in vivo
[4] = Cmax in BALB/cAnNCrlCr mouse at 2 mg/kg, po administered as single dose; assay type: ADME, organism-based; parameters: dose 2 mg/kg, route po; conditions: in vivo
[5] = Apparent permeability of the compound in human Caco-2 cells; assay type: ADME, cell-based
[6] = Tmax in BALB/cAnNCrlCr mouse at 2 mg/kg, po administered as single dose; assay type: ADME, organism-based; conditions: in vivo
[7] = Half-life in BALB/cAnNCrlCr mouse at 2 mg/kg, po administered as single dose; assay type: ADME, organism-based; conditions: in vivo
[8] = AUC (0 to infinity) in BALB/cAnNCrlCr mouse at 1 mg/kg, iv administered as single dose; assay type: ADME, organism-based; parameters: dose 1 mg/kg, route iv; conditions: in vivo
[9] = AUC (0 to infinity) in BALB/cAnNCrlCr mouse at 2 mg/kg, po administered as single dose; assay type: ADME, organism-based; parameters: dose 2 mg/kg, route po; conditions: in vivo
[10] = Oral bioavailability in BALB/cAnNCrlCr mouse at 2 mg/kg administered as single dose; assay type: ADME, organism-based; conditions: in vivo
[11] = Total clearance in BALB/cAnNCrlCr mouse at 1 mg/kg, iv administered as single dose; assay type: ADME, organism-based; conditions: in vivo
[12] = Drug concentration in BALB/cAnNCrlCr mouse at 1 mg/kg, iv administered as single dose; assay type: ADME, organism-based; conditions: in vivo

SMILES | IC50 [1] [nM] | other results
O=C(NCCc1ccccc1)c1cc(-c2ccc(Cl)cc2)n(-c2ccc(Cl)cc2)n1 | > 25000 | –
N/C(=N\S(=O)(=O)c1cccs1)NCc1cc(-c2ccc(Cl)cc2)n(-c2ccc(Cl)cc2)n1 | 249 | IC50 [2]: 1290 nM
N/C(=N\S(=O)(=O)Cc1ccccc1)NCc1cc(-c2ccc(Cl)cc2)n(-c2ccc(Cl)cc2)n1 | 774 | –
N/C(=N\S(=O)(=O)c1ccncc1)NCc1cc(-c2ccc(Cl)cc2)n(-c2ccc(Cl)cc2)n1 | 562 | –
CC(C)[C@H](N)C(=O)NCc1cc(-c2ccc(Cl)cc2)n(-c2ccc(Cl)cc2)n1 | 1850 | –
O=C(NCc1cc(-c2ccc(Cl)cc2)n(-c2ccc(Cl)cc2)n1)c1ccccc1 | > 25000 | –
NC(=O)NCc1cc(-c2ccc(Cl)cc2)n(-c2ccc(Cl)cc2)n1 | 1430 | –
CS(=O)(=O)/N=C(\NCc1ccccc1)NCc1cc(-c2ccc(Cl)cc2)n(-c2ccc(Cl)cc2)n1 | 31 | IC50 [2]: 1100 nM
N#C/N=C(\N)NCc1cc(-c2ccc(Cl)cc2)n(-c2ccc(Cl)cc2)n1 | 1590 | –
N/C(=N\S(=O)(=O)C1CC1)NCc1cc(-c2ccc(Cl)cc2)n(-c2ccc(Cl)cc2)n1 | 258 | –
CCN/C(=N\S(C)(=O)=O)NCc1cc(-c2ccc(Cl)cc2)n(-c2ccc(Cl)cc2)n1 | 848 | –
COc1cccc(S(=O)(=O)/N=C(\N)NCc2cc(-c3ccc(Cl)cc3)n(-c3ccc(Cl)cc3)n2)c1 | 60 | IC50 [2]: 2060 nM
Cn1ccc(S(=O)(=O)/N=C(\N)NCc2cc(-c3ccc(Cl)cc3)n(-c3ccc(Cl)cc3)n2)n1 | 510 | –
CN(C)CC(=O)NCc1cc(-c2ccc(Cl)cc2)n(-c2ccc(Cl)cc2)n1 | 3880 | –
CC(=O)N[C@H](C(=O)NCc1cc(-c2ccc(Cl)cc2)n(-c2ccc(Cl)cc2)n1)C(C)C | 2060 | –
N/C(=N\S(=O)(=O)c1ccccc1)NCc1cc(-c2ccc(Cl)cc2)n(-c2ccc(Cl)cc2)n1 | 93 | IC50 [2]: 1400 nM; half-life [3]: 3.37 h; Cmax [4]: 560 ng/mL; Papp [5]: 3 ×10⁻⁶ cm/s; Tmax [6]: 2 h; half-life [7]: 4.82 h; AUC(0-inf) [8]: 5570 ng·h/mL; AUC(0-inf) [9]: 4450 ng·h/mL; bioavailability [10]: 39.9%; clearance [11]: 3 mL/min/kg; Drug uptake [12]: 1920 ng/mL
O=C(CCc1ccccc1)NCc1cc(-c2ccc(Cl)cc2)n(-c2ccc(Cl)cc2)n1 | 262 | –
CS(=O)(=O)/N=C(\NCc1cccc(Cl)c1)NCc1cc(-c2ccc(Cl)cc2)n(-c2ccc(Cl)cc2)n1 | 20 | –
CC(=O)NCc1cc(-c2ccc(Cl)cc2)n(-c2ccc(Cl)cc2)n1 | 1770 | –
CS(=O)(=O)/N=C(\NCc1ccccn1)NCc1cc(-c2ccc(Cl)cc2)n(-c2ccc(Cl)cc2)n1 | 34 | –
NC(C(=O)NCc1cc(-c2ccc(Cl)cc2)n(-c2ccc(Cl)cc2)n1)c1ccccn1 (configuration not stated) | 227 | –

SMILES | IC50 [1] [nM] | other results
CN(C)[C@@H](CO)C(=O)NCc1cc(-c2ccc(Cl)cc2)n(-c2ccc(Cl)cc2)n1 | 4020 | –
N[C@H](C(=O)NCc1cc(-c2ccc(Cl)cc2)n(-c2ccc(Cl)cc2)n1)c1ccccc1 | 53 | IC50 [2]: 2660 nM
O=C(NCc1cc(-c2ccc(Cl)cc2)n(-c2ccc(Cl)cc2)n1)C(O)c1ccccc1 (configuration not stated) | 159 | –
CN(C)[C@@H](CO)CNC(=O)c1cc(-c2ccc(Cl)cc2)n(-c2ccc(Cl)cc2)n1 | 690 | –
CS(=O)(=O)/N=C(/NCc1cc(-c2ccc(Cl)cc2)n(-c2ccc(Cl)cc2)n1)NCc1cccs1 | 26 | –
CC(=O)NC(C(=O)NCc1cc(-c2ccc(Cl)cc2)n(-c2ccc(Cl)cc2)n1)c1ccccn1 (configuration not stated) | 56 | IC50 [2]: 4170 nM
N[C@@H](C(=O)NCc1cc(-c2ccc(Cl)cc2)n(-c2ccc(Cl)cc2)n1)c1ccccc1 | 368 | –
CC(=O)/N=C(\N)NCc1cc(-c2ccc(Cl)cc2)n(-c2ccc(Cl)cc2)n1 | 1540 | –
N[C@@H](Cc1ccccc1)C(=O)NCc1cc(-c2ccc(Cl)cc2)n(-c2ccc(Cl)cc2)n1 | 280 | –
O=C(Cc1ccccc1)NCc1cc(-c2ccc(Cl)cc2)n(-c2ccc(Cl)cc2)n1 | 188 | –
CS(=O)(=O)/N=C(\N)NCc1cc(-c2ccc(Cl)cc2)n(-c2ccc(Cl)cc2)n1 | 401 | –
N/C(=N\S(=O)(=O)C1CCCCC1)NCc1cc(-c2ccc(Cl)cc2)n(-c2ccc(Cl)cc2)n1 | 762 | –
CC(=O)N[C@H](C(=O)NCc1cc(-c2ccc(Cl)cc2)n(-c2ccc(Cl)cc2)n1)c1ccccc1 | 42 | IC50 [2]: 5020 nM
CS(=O)(=O)NCc1cc(-c2ccc(Cl)cc2)n(-c2ccc(Cl)cc2)n1 | 2190 | –
CS(=O)(=O)/N=C(/NCc1cc(-c2ccc(Cl)cc2)n(-c2ccc(Cl)cc2)n1)NCC1CC1 | 53 | IC50 [2]: 1640 nM
CS(=O)(=O)/N=C(/NCc1cc(-c2ccc(Cl)cc2)n(-c2ccc(Cl)cc2)n1)N[C@H](CO)c1ccccc1 | 45 | –
CS(=O)(=O)N[C@H](C(=O)NCc1cc(-c2ccc(Cl)cc2)n(-c2ccc(Cl)cc2)n1)c1ccccc1 | 60 | IC50 [2]: > 10000 nM
N/C(=N\S(=O)(=O)c1cccc(F)c1)NCc1cc(-c2ccc(Cl)cc2)n(-c2ccc(Cl)cc2)n1 | 56 | IC50 [2]: 1350 nM
CN(C)[C@H](C(=O)NCc1cc(-c2ccc(Cl)cc2)n(-c2ccc(Cl)cc2)n1)c1ccccc1 | 53 | IC50 [2]: 1720 nM
NC(=O)/N=C(\N)NCc1cc(-c2ccc(Cl)cc2)n(-c2ccc(Cl)cc2)n1 | 1110 | –
